What all share (assay): kinase binding screen (kinase-tagged T7 phage, qPCR), % Ctrl
(Quantitative PCR measures a nucleic acid by following its amplification.)

One experiment addresses DYRK1A (Homo sapiens, UniProt Q13627). The method in brief: (§1)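 Kinase-tagged T7 phage lysates were prepared in E. coli (MOI 0.4, 32° C until lysis), then exposed to ligand-bearing beads and test compound at a fixed concentration. Kinase remaining bound was eluted and measured by qPCR.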
For another experiment, the target named is T1, MAP3K15 (Homo sapiens, UniProt Q6ZN16).
T1 sequence (Q6ZN16 1-1313): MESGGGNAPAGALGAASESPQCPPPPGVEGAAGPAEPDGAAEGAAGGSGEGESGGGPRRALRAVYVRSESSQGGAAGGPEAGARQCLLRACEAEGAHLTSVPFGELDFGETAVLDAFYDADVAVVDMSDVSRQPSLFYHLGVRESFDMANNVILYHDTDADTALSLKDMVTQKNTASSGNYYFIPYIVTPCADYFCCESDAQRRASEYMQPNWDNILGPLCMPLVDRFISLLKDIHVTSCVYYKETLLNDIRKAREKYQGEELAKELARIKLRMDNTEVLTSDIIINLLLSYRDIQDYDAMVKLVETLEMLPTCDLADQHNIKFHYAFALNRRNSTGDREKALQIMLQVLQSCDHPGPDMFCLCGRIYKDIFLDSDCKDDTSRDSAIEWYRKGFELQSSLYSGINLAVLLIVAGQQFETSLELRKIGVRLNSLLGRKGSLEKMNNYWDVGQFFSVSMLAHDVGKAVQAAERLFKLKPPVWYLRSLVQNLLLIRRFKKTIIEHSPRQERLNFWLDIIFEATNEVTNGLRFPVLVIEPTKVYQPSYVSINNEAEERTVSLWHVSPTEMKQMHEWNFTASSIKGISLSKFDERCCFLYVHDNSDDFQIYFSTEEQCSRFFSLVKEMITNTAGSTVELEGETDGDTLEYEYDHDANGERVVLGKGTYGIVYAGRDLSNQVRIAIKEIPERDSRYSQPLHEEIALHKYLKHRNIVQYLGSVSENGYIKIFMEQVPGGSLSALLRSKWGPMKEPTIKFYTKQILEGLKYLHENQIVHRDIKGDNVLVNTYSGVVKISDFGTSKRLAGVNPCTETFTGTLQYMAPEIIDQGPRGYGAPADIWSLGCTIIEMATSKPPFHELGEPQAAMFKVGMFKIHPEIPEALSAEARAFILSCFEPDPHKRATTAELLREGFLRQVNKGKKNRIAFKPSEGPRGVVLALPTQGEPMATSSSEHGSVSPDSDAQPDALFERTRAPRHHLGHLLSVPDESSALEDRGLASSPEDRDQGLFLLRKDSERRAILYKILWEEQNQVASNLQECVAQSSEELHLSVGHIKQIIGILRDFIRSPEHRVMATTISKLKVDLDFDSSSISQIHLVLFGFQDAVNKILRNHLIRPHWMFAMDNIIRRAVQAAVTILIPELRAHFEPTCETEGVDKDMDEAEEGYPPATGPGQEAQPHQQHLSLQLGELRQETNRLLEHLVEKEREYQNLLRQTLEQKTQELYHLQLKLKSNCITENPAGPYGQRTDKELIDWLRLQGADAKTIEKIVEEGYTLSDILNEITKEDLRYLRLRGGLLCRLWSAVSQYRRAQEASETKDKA
The method in brief:
as §1

Another experiment has as its target T2, PRKCE (Homo sapiens, UniProt Q02156).
T2 sequence (Q02156 1-737): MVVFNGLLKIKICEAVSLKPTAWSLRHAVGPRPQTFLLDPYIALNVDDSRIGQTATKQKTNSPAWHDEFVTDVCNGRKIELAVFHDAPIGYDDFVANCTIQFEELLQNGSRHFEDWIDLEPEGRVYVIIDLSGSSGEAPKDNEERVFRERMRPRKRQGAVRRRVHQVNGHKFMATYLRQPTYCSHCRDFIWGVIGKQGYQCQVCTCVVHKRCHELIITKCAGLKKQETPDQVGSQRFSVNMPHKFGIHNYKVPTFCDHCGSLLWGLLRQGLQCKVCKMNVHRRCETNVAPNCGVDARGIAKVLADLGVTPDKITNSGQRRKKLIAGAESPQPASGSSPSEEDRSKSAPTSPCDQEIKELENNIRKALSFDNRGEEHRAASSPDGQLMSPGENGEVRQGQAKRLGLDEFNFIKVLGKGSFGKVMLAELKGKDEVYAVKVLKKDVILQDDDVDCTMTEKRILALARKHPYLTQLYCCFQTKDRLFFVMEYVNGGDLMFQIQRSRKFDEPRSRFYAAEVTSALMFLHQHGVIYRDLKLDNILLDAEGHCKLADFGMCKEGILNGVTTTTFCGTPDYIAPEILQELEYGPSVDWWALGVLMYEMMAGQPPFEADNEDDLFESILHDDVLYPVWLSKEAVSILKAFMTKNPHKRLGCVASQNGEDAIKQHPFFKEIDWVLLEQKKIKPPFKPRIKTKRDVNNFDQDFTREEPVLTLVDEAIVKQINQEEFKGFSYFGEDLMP
The method, boiled down:
as §1

The target in experiment [1] is T3, RPS6KA6(Kin.Dom.2-C-terminal) (Homo sapiens, UniProt Q9UK32).
T3 sequence (Q9UK32 426-683 limits assumed): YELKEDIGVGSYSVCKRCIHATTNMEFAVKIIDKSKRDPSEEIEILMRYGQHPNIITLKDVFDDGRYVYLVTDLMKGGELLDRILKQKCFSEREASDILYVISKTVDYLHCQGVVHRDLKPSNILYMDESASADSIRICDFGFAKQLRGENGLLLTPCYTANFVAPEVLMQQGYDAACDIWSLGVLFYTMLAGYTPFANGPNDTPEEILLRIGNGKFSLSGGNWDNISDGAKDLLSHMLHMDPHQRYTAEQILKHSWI
The method in brief:
as §1

Another experiment addresses YANK2 (Homo sapiens, UniProt Q9NY57). The method in brief:
as §1

Experimental findings from US20110152313A1 (MACQUARIE UNIVERSITY, priority 2008, published 2011) are described below.

For orientation: remaining activity means the activity still measured, relative to the control. High values mean much activity left, low ones little activity left.

YANK2, sequence (Q9NY57 whole entry): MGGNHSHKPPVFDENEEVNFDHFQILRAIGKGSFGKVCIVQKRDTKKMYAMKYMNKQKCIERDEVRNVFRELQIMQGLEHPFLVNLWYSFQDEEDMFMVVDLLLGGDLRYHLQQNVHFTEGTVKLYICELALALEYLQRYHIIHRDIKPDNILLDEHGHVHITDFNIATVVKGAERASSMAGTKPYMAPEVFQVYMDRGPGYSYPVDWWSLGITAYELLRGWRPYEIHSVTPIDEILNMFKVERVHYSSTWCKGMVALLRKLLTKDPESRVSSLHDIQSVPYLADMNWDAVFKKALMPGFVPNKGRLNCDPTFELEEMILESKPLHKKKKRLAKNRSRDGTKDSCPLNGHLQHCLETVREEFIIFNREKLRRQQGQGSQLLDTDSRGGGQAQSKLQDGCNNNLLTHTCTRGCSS

Regarding `Nc1nc2c(-c3cc(Br)c(Br)[nH]3)nccc2[nH]1` [Ageladine A, ageladine A, reference compound], the remaining activity at 1 µM at DYRK1A is 38%; on MAP3K15 it was 100%; on PRKCE, 54%; in experiment [1], 51%; at YANK2 it was 93%. Further, the remaining activity at 10 µM at DYRK1A (10 μM) amounted to 4.7%; on MAP3K15 (10 μM) it was 78%; at PRKCE (10 μM) it was 100%; in experiment [1] (10 μM), 34%; at YANK2 (10 μM), 87%.
For the molecule `Nc1nc2c(-c3ccccn3)nccc2[nH]1` [drawing 35, 4-(pyrid-2-yl)-1H-imidazo[4,5-c]pyridin-2-amine], the remaining activity at 1 µM at DYRK1A was 36%; at MAP3K15, 40%; on PRKCE, 20%; in experiment [1] it was 49%; at YANK2, 89%.
As to `Nc1nc2c(-c3cnc4ccccc4c3)nccc2[nH]1` [drawing 36, 4-(quinolin-3-yl)-1H-imidazo[4,5-c]pyridin-2-amine], the remaining activity at 1 µM at DYRK1A was determined as 51%; on MAP3K15, 94%; on PRKCE, 100%; in experiment [1], 100%; at YANK2 it was 50%.
